Test results as given in the supplement of paper PMC10627819.

How the values were obtained:
Test in all cases: fitness (endpoint OD595 vs no drug) (fraction); higher = more growth
S. pneumoniae D39V = tested on: S. pneumoniae D39V
Method in brief: (§1)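 Fitness compares growth at the stationary-phase transition with the robust mean of no-drug control wells, as a ratio of optical densities. The ratio is capped at 1. Wells of 384-well plates held 30 µl, or 55 µl for S. pneumoniae, inoculated at OD595 0.01. Readings at OD595 every 30 min for 14 h at 37 °C were corrected against the first reading.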

B. subtilis 168 = tested on: B. subtilis 168
Method in brief: as §1

S. aureus DSM 20231 = tested on: S. aureus DSM 20231
Method in brief: as §1
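Note: OD595 on entry to stationary phase over no-drug wells; at most 1.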

CN(C)[C@@H]1C(O)=C(C(N)=O)C(=O)[C@@]2(O)C(O)=C3C(=O)c4c(O)ccc(Cl)c4[C@@](C)(O)[C@H]3C[C@@H]12 [Chlortetracycline] + O=C(O[C@@H]1Cc2c(O)cc(O)cc2O[C@@H]1c1cc(O)c(O)c(O)c1)c1cc(O)c(O)c(O)c1 [EGCG]
fitness
Settings | partner 6.25 µg/mL | partner 12.5 µg/mL | partner 25 µg/mL | partner 50 µg/mL
B. subtilis 168, first compound 0.0475 µg/mL | 0.911 | – | 0.303 | –
B. subtilis 168, first compound 0.095 µg/mL | 0.754 | 0.463 | – | –
B. subtilis 168, first compound 0.19 µg/mL | 0.484 | 0.214 | 0.0594 | –
S. aureus DSM 20231, first compound 0.012 µg/mL | – | 0.595 | 0.549 | –
S. aureus DSM 20231, first compound 0.024 µg/mL | – | 0.455 | 0.398 | 0.332
S. aureus DSM 20231, first compound 0.048 µg/mL | – | 0.138 | 0.108 | 0
S. pneumoniae D39V, first compound 0.012 µg/mL | – | 0.759 | 0.805 | 0.949
S. pneumoniae D39V, first compound 0.024 µg/mL | – | 0.444 | 0.454 | 0.672
S. pneumoniae D39V, first compound 0.048 µg/mL | – | 0.247 | 0.212 | –
S. pneumoniae D39V, first compound 0.375 µg/mL | – | 0.07 | 0.0693 | 0.0612
S. pneumoniae D39V, first compound 0.75 µg/mL | – | 0.0431 | 0.0527 | 0.0692
S. pneumoniae D39V, first compound 1.5 µg/mL | – | 0.0475 | 0.0473 | 0.0718

S. aureus DSM 20231, first compound 0.006 µg/mL, one replicate
Settings | fitness
partner 12.5 µg/mL | 0.65
partner 25 µg/mL | 0.623
partner 50 µg/mL | 0.673

CN(C)[C@@H]1C(O)=C(C(N)=O)C(=O)[C@@]2(O)C(O)=C3C(=O)c4c(O)ccc(Cl)c4[C@@](C)(O)[C@H]3C[C@@H]12 [Chlortetracycline] + CN1C2=CC=CC=C2N=C3C1=CC=CC3=O [Pyocyanin]
one replicate
Settings | fitness
S. aureus DSM 20231, first compound 0.006 µg/mL, partner 1.25 µg/mL | 0.748
S. aureus DSM 20231, first compound 0.006 µg/mL, partner 2.5 µg/mL | 0.692
S. aureus DSM 20231, first compound 0.006 µg/mL, partner 5 µg/mL | 0.602
S. pneumoniae D39V, first compound 0.012 µg/mL, partner 0.325 µg/mL | 0.893
S. pneumoniae D39V, first compound 0.012 µg/mL, partner 0.65 µg/mL | 0.958
S. pneumoniae D39V, first compound 0.024 µg/mL, partner 0.325 µg/mL | 0.932
S. pneumoniae D39V, first compound 0.024 µg/mL, partner 0.65 µg/mL | 0.885
S. pneumoniae D39V, first compound 0.048 µg/mL, partner 0.325 µg/mL | 0.858
S. pneumoniae D39V, first compound 0.048 µg/mL, partner 0.65 µg/mL | 0.868

fitness
Settings | partner 0.325 µg/mL | partner 0.65 µg/mL | partner 1.25 µg/mL | partner 1.3 µg/mL | partner 2.5 µg/mL | partner 5 µg/mL
B. subtilis 168, first compound 0.0475 µg/mL | – | – | 0.837 | – | 0.825 | 0.692
B. subtilis 168, first compound 0.095 µg/mL | – | – | 0.774 | – | 0.7 | 0.597
B. subtilis 168, first compound 0.19 µg/mL | – | – | 0.594 | – | 0.529 | 0.416
S. aureus DSM 20231, first compound 0.012 µg/mL | – | – | 0.487 | – | 0.43 | 0.359
S. aureus DSM 20231, first compound 0.024 µg/mL | – | – | 0.185 | – | 0.147 | 0.121
S. aureus DSM 20231, first compound 0.048 µg/mL | – | – | 0.0813 | – | 0.0826 | 0.0871
S. pneumoniae D39V, first compound 0.375 µg/mL | 0.0228 | 0.0497 | – | 0.031 | – | –
S. pneumoniae D39V, first compound 0.75 µg/mL | 0.0553 | 0.0813 | – | 0.104 | – | –
S. pneumoniae D39V, first compound 1.5 µg/mL | 0.0507 | 0.0698 | – | 0.0588 | – | –
